Entries after “also recorded” stand apart in the source; their conditions may differ.
Columns and labels:
[1] = tested on: MCF-7 breast cancer cells; test: Enhancement of direct cellular injury by freeze/thaw after TNF-alpha exposure, MCF-7; assay type: cell-based
[2] = tested on: LNCaP Pro 5 prostate cancer cells; test: Enhancement of direct cellular injury by freeze/thaw after TNF-alpha exposure, LNCaP Pro 5; assay type: cell-based, human
[3] = tested on: Human dermal microvascular endothelial cells (MVEC); test: Enhancement of direct cellular injury by freeze/thaw after TNF-alpha exposure, MVEC; assay type: cell-based
Protocol: Cell suspensions of human endothelial cells (MVECs) were used to assess the enhancement of direct cellular injury (DCI) by use of an adjuvant, wherein the adjuvant used is TNF-alpha.
Human dermal microvascular endothelial cells (MVEC) were prepared and grown as adherent monolayers as described by Gupta et al., Experimental Cell Research, 230:244-251 (1997), maintained in a 37° C./5% CO2/95% humidified air environment in T-flasks pre-coated with 1% gelatin in MCDB 131 medium supplemented with 20% heat-inactivated human male serum, hydrocortisone, cAMP, L-glutamine, heparin, endothelial cell growth supplement (Vec Tec, Schenectady, N.Y.) and antibiotics. […]
Control and experimental F/T groups were then assessed for cell viability at varying time points starting 3 hours after intervention. Cell viability was measured microscopically by a fluorescent dye assay (cell viability assay) by an apoptotic/necrotic assay.
The fluorescent dye assay was used to assess the plasma membrane integrity of cells immediately before (control) and after F/T using Hoechst 33342 and propidium iodide (PI). […] Cells were incubated with 9 μM Hoechst 33342 and 7 μM PI for 15 minutes at 37° C., placed on a microslide, cover-slipped and the percentage of dead cells/field determined at 200X using a fluorescent microscope (Olympus BX-50, Tokyo, Japan). […]

[4] = tested on: LNCaP Pro 5 human prostate cancer tumor tissue; test: Cryosurgery of TNF-alpha pre-inflamed LNCaP Pro 5 tumor in dorsal skin flap chamber (DSFC); assay type: in vivo, male athymic nude mice
Protocol: The dorsal skin flap chamber (DSFC) of male athymic nude mice was seeded with the tumor LNCaP […] human prostate cancer, inflamed with TNF-alpha, subjected to cryosurgery, and assessed according to the following procedure. The dorsal skin of a male athymic nude mouse was sandwiched between two identical anodized aluminum frames, a 19 millimeter (mm) by 22 mm chamber was mounted onto the mouse by three screws, the skin was attached to the chamber with 4-O silk using suture holes, and the skin on the side of the viewing region was removed, exposing the dermis containing the microvasculature on the opposite side of the skin. To provide chambers having tumors, approximately 5×10^6LNCaP […] human prostate tumor cells were mixed with MATRIGEL matrix (BD Biosciences, Bedford, Mass.) as described by Lim et al. (Prostate, 22:109-118 (1993)). Approximately 30 μl of the cell suspension was applied to the surface of the microvascular bed immediately after the initial chamber implantation and the tumor was allowed to grow for 10 days, the skin reaching a total thickness of about 450 micrometers (μm) and the tumor extending approximately 10 mm in diameter. […] After four (4) hours, the mouse was anesthetized, TNF-alpha-induced inflammation was measured by observation of leukocyte rolling, and thereafter cryosurgery was immediately performed in the inflamed tissue. […] The temperature at each thermocouple was recorded using a HYDRA DATA LOGGER SERIES 2 (Fluke, Everett, Wash.). […] The dorsal skin flap chamber was then illuminated with a mercury lamp and a FITC signal-enhancing filter (λ=470-490 nm) to view the contrast fluorescence. A Silicon Intensified Transmission camera (Hamamatsu, North Central Instruments, Twin Cities, Minn.) was used to detect the fluorescent signal, and the signal was recorded with a JVC S-VHS video recorder (JVC Company of America, Aurora, Ill.). […] The end temperature of the cryolesion and the thermal parameters within the cryosurgical ice ball were calculated according to the methods of Chao et al. (Cryobiology, 2004 (in press)). […]

[5] = tested on: normal nude mouse hypodermis (normal skin); test: Cryosurgery of TNF-alpha pre-inflamed normal skin in dorsal skin flap chamber (DSFC); assay type: in vivo
[6] = TNF-alpha 10 ng/ml to 1 μg/ml for 4 to 48 hours before freeze/thaw

Substance: TNF-alpha
- cryosensitivity of cells in vitro [1, 6]: increase cryosensitivity
- necrosis of inflamed cells in vitro ([1]; apoptosis/necrosis assay): increased necrosis
- cryosensitivity of cells in vitro [2, 6]: increase cryosensitivity
- necrosis of inflamed cells in vitro ([2]; apoptosis/necrosis assay): increased necrosis
- cryosensitivity of cells in vitro [3, 6]: increase cryosensitivity
- necrosis of inflamed cells in vitro ([3]; apoptosis/necrosis assay): increased necrosis
- position of the edge of the static zone relative to the edge of the ice ball ([4]; LNCaP Pro 5 tumor tissues treated with TNF-alpha): extended beyond the edge of the ice ball
- radius of the edge of the static zone (zone of vascular stasis) ([4]; day 3 post cryosurgery, LNCaP Pro 5 tumor tissue, local 0.2 ng TNF-alpha 4 hours before cryosurgery): 4.07±0.34 mm
- increase of the threshold temperature of cryo-destruction versus tissue without TNF-alpha ([4]; local use of TNF-alpha, LNCaP Pro 5 tumor tissue): more than 10 °C
- minimum temperature required for cryo-destruction ([5]; TNF-alpha-treated normal skin): −9.8±5.8 °C
- position of the edge of the static zone relative to the edge of the ice ball ([5]; inflamed normal skin tissues treated with TNF-alpha): stayed within the edge of the ice ball; also recorded: moved the edge of the static zone closer to the edge of the cryosurgical ice ball
- radius of the edge of the static zone (zone of vascular stasis) ([5]; normal nude mouse hypodermis treated with TNF-alpha, day 3 post cryosurgery): 3.99±0.13 mm

Source: patent publication US7344531B2, “Thermal surgical procedures and compositions” (Regents of the University of Minnesota, priority 2003, dated 2008)
